The record followed here is US11325913B2, “Compounds and methods for the treatment of malaria” (THE BROAD INSTITUTE, INC., priority 2013, dated 2022).

The subject of one assay is P. falciparum Dd2. The assay is described as follows: Activity against the Dd2 strain of P. falciparum (SYBR Green I, 72 h). Particulars: P. falciparum Dd2, 72 h incubation. Type of assay: cell-based. On the procedure: The Dd2 strain of P. falciparum was cultured in complete medium (RPMI with L-glutamine, 4.3% heat-inactivated O-positive human serum, 2.08 mg/ml albumax, 0.013 mg/ml hypoxanthine, 1.17 mg/ml glucose, 0.18% NaHCO3, 0.031 M Hepes, 2.60 mM NaOH, and 0.043 mg/ml gentamicin) until the parasitemia reached 3-8%. Parasitemia was determined by checking at least 500 red blood cells from a Giemsa-stained blood smear. The Dd2 cultures along with tested O-positive red blood cells were centrifuged at room temperature at 2,000 rpm for 5 minutes using an Eppendorf centrifuge 5810R with an A-4-81 rotor. The medium was aspirated off. For the compound screening, a parasite dilution at a 1% parasitemia and 1.0% hematocrit was created with screening medium (RPMI with L-glutamine, 4.16 mg/ml albumax II, 0.013 mg/ml hypoxanthine, 1.73 mg/ml glucose, 0.18% NaHCO3, 0.031 M Hepes, 2.60 mM NaOH, and 0.043 mg/ml gentamicin). The suspension was gassed with 93% nitrogen, 4% carbon dioxide, and 3% oxygen and placed at 37° C. until needed. Using a liquid dispenser, 20 μl of screening medium was dispensed into 384-well, black, clear-bottom plates. With a PinTool, 100 nl of compounds dissolved in DMSO was transferred into the assay plates along with control compound (mefloquine). Next, 30 μl of the parasite suspension in screening medium was then dispensed into the assay plates such that the final parasitemia was 1% and the final hematocrit was 1.0%. Final concentration of DMSO was 0.125%. Mefloquine at a final concentration of 20 μM and DMSO at a final concentration of 0.125% were used within the assay plates to serve as background and baseline controls, respectively. The assay plates were transferred to incubators (93% nitrogen, 4% carbon dioxide, and 3% oxygen during the 72 h incubation at 37° C.). Ten microliters of detection reagent consisting of 10×SYBR Green I (Invitrogen; supplied in 10,000× concentration) in lysis buffer (20 mM Tris-HCl, 5 mM EDTA, 0.16% Saponin wt/vol, 1.6% Triton X vol/vol) was dispensed into the assay plates. For optimal staining, the assay plates were left at room temperature for 24 h in the dark. The assay plates were read by using an Envision (PerkinElmer) reader, with 505 dichroic mirrors with 485-nm excitation and 530-nm emission settings, and the plate reads were from the bottom.
By following the above-described protocol, the 50% effective concentration (EC50) for compounds 1-95 was measured against P. falciparum Dd2 and the results are shown in Table 2: […]
In turn, `O=C(Nc1ccc(F)cc1)N1CCCCN2[C@H](CO)[C@H](c3ccc(C#Cc4ccccc4)cc3)[C@@H]2C1` [Compound 54, (8R,9R,10S)-N-(4-fluorophenyl)-10-(hydroxymethyl)-9-[4-(2-phenylethynyl)phenyl]-1,6-diazabicyclo[6.2.0] decane-6-carboxamide] returned an EC50 of 156 nM. This counts as sub-micromolar.

The same assay, now with this note: Plasmodium falciparum, DD2, 72 h, P. falciparum Dd2, 72 h incubation.
Regarding `O=C(Nc1ccncc1)N1CCCCN2[C@H](CO)[C@H](c3ccc(C#Cc4ccccc4)cc3)[C@@H]2C1` [Compound 50, (8R,9R,10S)-10-(hydroxymethyl)-9-[4-(2-phenylethynyl)phenyl]-N-(pyridin-4-yl)-1,6-diazabicyclo[6.2.0] decane-6-carboxamide], the EC50 was determined as 1230 nM. That is a single-digit micromolar value.

As for `COc1ccc(NC(=O)N2CCCCN3[C@H](CO)[C@H](c4ccc(C#Cc5ccc(F)cc5)cc4)[C@@H]3C2)cc1` [Compound 51, (8R,9R,10S)-9-{4-[2-(4-fluorophenyl)ethynyl]phenyl}-10-(hydroxymethyl)-N-(4-methoxyphenyl)-1,6-diazabicyclo[6.2.0] decane-6-carboxamide], the EC50 came out at 11 nM.

On to `COc1ccc(NC(=O)N2CCCCN3[C@@H](CO)[C@H](c4ccc(C#Cc5ccccc5)cc4)[C@@H]3C2)cc1` [Compound 52, (8R,9R,10R)-10-(hydroxymethyl)-N-(4-methoxyphenyl)-9-[4-(2-phenylethynyl)phenyl]-1,6-diazabicyclo[6.2.0] decane-6-carboxamide], for which a half-maximal effect (EC50) was put at 17 nM.

`COc1ccc(NC(=O)N2CCCCN3[C@H](C(=O)O)[C@H](c4ccc(C#Cc5ccccc5)cc4)[C@@H]3C2)cc1` [Compound 53, (8R,9R,10S)-6-[(4-methoxyphenyl)carbamoyl]-9-[4-(2-phenylethynyl)phenyl]-1,6-diazabicyclo[6.2.0] decane-10-carboxylic acid]: the response was half-maximal at 2770 nM (EC50).

For the molecule `COc1ccc(NC(=O)N2CCCCN3[C@H](CN4CCOCC4)[C@H](c4ccc(C#Cc5ccccc5)cc4)[C@@H]3C2)cc1` [Compound 55, (8R,9S,10S)-N-(4-methoxyphenyl)-10-(morpholin-4-ylmethyl)-9-[4-(2-phenylethynyl)phenyl]-1,6-diazabicyclo[6.2.0] decane-6-carboxamide], the concentration for a half-maximal effect (EC50) is 5 nM.

As for `COc1cccc(NC(=O)N2CCCCN3[C@H](CO)[C@H](c4ccc(C#Cc5ccccc5)cc4)[C@@H]3C2)c1` [Compound 56], the EC50 was determined as 80 nM.

`COc1ccc(NC(=O)N2CCCCN3[C@H](CN)[C@H](c4ccc(C#Cc5ccccn5)cc4)[C@@H]3C2)cc1` [Compound 57, (8R,9S,10S)-10-(aminomethyl)-N-(4-methoxyphenyl)-9-{4-[2-(pyridin-2-yl)ethynyl]phenyl}-1,6-diazabicyclo[6.2.0] decane-6-carboxamide]: the response was half-maximal at 98 nM (EC50).

Turning to `COc1ccc(NC(=O)N2CCCCN3[C@H](CNC(C)=O)[C@H](c4ccc(C#Cc5ccccc5)cc4)[C@@H]3C2)cc1` [Compound 58, (8R,9S,10S)-10-(acetamidomethyl)-N-(4-methoxyphenyl)-9-[4-(2-phenylethynyl)phenyl]-1,6-diazabicyclo[6.2.0] decane-6-carboxamide], the EC50 came to 6 nM.

On to `O=C(Nc1cccnc1)N1CCCCN2[C@H](CO)[C@H](c3ccc(C#Cc4ccccc4)cc3)[C@@H]2C1` [Compound 59, (8R,9R,10S)-10-(hydroxymethyl)-9-[4-(2-phenylethynyl)phenyl]-N-(pyridin-3-yl)-1,6-diazabicyclo[6.2.0] decane-6-carboxamide], for which a half-maximal response (EC50) required 2700 nM.

`COc1ccc(NC(=O)N2CCCCN3[C@H](CO)[C@H](c4ccc(C#Cc5cccnc5)cc4)[C@@H]3C2)cc1` [Compound 60, (8R,9R,10S)-10-(hydroxymethyl)-N-(4-methoxyphenyl)-9-{4-[2-(pyridin-3-yl)ethynyl]phenyl}-1,6-diazabicyclo[6.2.0] decane-6-carboxamide] displayed an EC50 of 61 nM.

In general, EC50 refers to the concentration at which the effect is half-maximal.
